Assay results published in PMC6930469, “Tetrandrine Interaction with ABCB1 Reverses Multidrug Resistance in Cancer Cells Through Competition with Anti-Cancer Drugs Followed by Downregulation of ABCB1 Expression” (Molecules, 2019).

Target: ABCB1 (P-glycoprotein) (Homo sapiens, UniProt P08183)
Test: Vanadate-sensitive ABCB1 ATPase stimulation in cell membranes (PREDEASY kit); also [3H]-paclitaxel accumulation/efflux in KB-C2 cells
Assay type: biochemical

Sequence of ABCB1 (P-glycoprotein) (P08183 whole entry): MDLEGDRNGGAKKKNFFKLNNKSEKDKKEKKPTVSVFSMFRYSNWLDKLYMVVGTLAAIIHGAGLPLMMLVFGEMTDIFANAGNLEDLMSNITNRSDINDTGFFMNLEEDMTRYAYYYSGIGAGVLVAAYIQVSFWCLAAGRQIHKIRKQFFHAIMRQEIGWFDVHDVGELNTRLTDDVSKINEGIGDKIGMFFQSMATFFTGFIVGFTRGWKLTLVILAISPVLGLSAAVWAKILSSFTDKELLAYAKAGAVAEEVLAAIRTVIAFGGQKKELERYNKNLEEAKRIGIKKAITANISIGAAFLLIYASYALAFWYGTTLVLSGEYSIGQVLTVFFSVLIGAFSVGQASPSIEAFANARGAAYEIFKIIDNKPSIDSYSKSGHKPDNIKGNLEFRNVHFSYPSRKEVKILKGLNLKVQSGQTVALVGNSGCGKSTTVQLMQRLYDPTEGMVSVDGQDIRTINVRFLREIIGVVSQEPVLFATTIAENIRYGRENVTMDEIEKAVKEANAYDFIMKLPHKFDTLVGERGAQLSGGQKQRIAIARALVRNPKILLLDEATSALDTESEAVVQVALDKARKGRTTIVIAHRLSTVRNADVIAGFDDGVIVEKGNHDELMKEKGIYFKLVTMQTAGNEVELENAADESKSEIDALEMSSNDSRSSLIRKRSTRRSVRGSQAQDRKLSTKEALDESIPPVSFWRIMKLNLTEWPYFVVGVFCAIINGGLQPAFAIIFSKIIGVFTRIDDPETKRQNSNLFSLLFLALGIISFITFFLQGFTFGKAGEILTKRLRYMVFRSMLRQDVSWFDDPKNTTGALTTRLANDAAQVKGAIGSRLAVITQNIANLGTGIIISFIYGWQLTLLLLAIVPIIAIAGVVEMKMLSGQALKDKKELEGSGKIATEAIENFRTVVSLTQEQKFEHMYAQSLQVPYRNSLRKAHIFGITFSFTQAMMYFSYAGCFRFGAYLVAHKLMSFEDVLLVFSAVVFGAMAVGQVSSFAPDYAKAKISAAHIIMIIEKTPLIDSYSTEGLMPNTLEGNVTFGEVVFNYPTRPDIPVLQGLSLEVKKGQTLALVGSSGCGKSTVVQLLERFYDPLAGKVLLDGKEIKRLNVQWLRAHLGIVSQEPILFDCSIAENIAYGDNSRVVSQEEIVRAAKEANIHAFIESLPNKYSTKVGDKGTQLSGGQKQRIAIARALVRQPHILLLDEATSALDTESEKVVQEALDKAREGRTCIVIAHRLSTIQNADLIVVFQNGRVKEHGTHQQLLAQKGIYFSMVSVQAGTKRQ

EC50: 470 nM
Structure (SMILES): COc1ccc2cc1Oc1ccc(cc1)C[C@H]1c3cc(c(OC)cc3CCN1C)Oc1c(OC)c(OC)cc3c1[C@H](C2)N(C)CC3 [tetrandrine]
